The text below walks through data of US8802597B2, “Herbicidal pyrimidines” (E I du Pont de Nemours and Company, priority 2003, dated 2014).

Common to all, as to test: Test A pre/postemergence
Common to all, as to format: in vivo

The test system of assay [1] is giant foxtail (Setaria faberi). The method in brief: (§1)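 Ratings: 0 = no effect, 100 = complete control, assessed visually about ten days post-treatment in a greenhouse. Applications: soil-directed preemergence spray and postemergence spray on 1- to 2-leaf plants, both using a surfactant-containing non-phytotoxic solvent formulation.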
Assay [2] relates to crabgrass (Digitaria sanguinalis). The method in brief:
as §1

In assay [3] the test system is velvetleaf (Abutilon theophrasti). The method in brief: as §1
Assay [4] deals with redroot pigweed (Amaranthus retroflexus). Summed up:
as §1

For assay [5], the system named is morningglory (Ipomoea spp.). Summed up:
as §1

In assay [6] the test system is barnyardgrass (Echinochloa crus-galli). The method in brief:
as §1

Where [7] appears, read: Postemergence, 125 g ai/ha, 0 to 100 scale (0 no effect, 100 complete control).
[8] abbreviates: Postemergence, 500 g ai/ha, 0 to 100 scale (0 no effect, 100 complete control).
The mark [9] stands for this setting: Preemergence, 125 g ai/ha, 0 to 100 scale where 0 is no effect and 100 is complete control, approximately ten days.
Setting [10] is: Preemergence, 500 g ai/ha, 0 to 100 scale where 0 is no effect and 100 is complete control, approximately ten days.

Turning to `Nc1nc(C2CC2)nc(C(=O)OCCCO)c1Cl` [Compound 143], the “Plant response rating, Foxtail, Giant” value in assay [1] (setting [7]) is listed as 25; in assay [1] (setting [8]) it was 80; in assay [1] (setting [9]), 35; in assay [1] (setting [10]), 75. Further, the “Plant response rating, Crabgrass” value in assay [2] (setting [7]) is given as 5; in assay [2] (setting [8]) it was 60; in assay [2] (setting [9]), 70; in assay [2] (setting [10]), 95. The “Plant response rating, Velvetleaf” value in assay [3] (setting [7]) came out at 75; in assay [3] (setting [8]) it was 95; in assay [3] (setting [9]) it was 90; in assay [3] (setting [10]), 95. Also, the “Plant response rating, Pigweed” value worked out at 70 in assay [4] (setting [7]), 90 in assay [4] (setting [8]), 65 in assay [4] (setting [9]) and 95 in assay [4] (setting [10]). For the same compound, the “Plant response rating, Morningglory” value came to 90 in assay [5] (setting [7]), 90 in assay [5] (setting [8]), 90 in assay [5] (setting [9]) and 100 in assay [5] (setting [10]). Further, the “Plant response rating, Barnyardgrass” value was 55 in assay [6] (setting [7]), 75 in assay [6] (setting [8]), 65 in assay [6] (setting [9]) and 85 in assay [6] (setting [10]).

Consider `COC(=O)COc1nc(C2CC2)nc(N)c1Cl` [Compound 112], for which the “Plant response rating, Foxtail, Giant” value in assay [1] (setting [7]), in assay [1] (setting [8]), in assay [1] (setting [9]) and in assay [1] (setting [10]) was 0 each time. In addition, the “Plant response rating, Crabgrass” value in assay [2] (setting [7]) is recorded as 0; in assay [2] (setting [8]), 0; in assay [2] (setting [9]) it was 0; in assay [2] (setting [10]), 10. The “Plant response rating, Velvetleaf” value is listed as 20 in assay [3] (setting [7]), 35 in assay [3] (setting [8]), 0 in assay [3] (setting [9]) and 10 in assay [3] (setting [10]). Further, the “Plant response rating, Pigweed” value in assay [4] (setting [7]) is listed as 20; in assay [4] (setting [8]), 40; in assay [4] (setting [9]), 10; in assay [4] (setting [10]) it was 30. Further, the “Plant response rating, Morningglory” value in assay [5] (setting [7]) is 55; in assay [5] (setting [8]) it was 50; in assay [5] (setting [9]) it was 0; in assay [5] (setting [10]), 10. The “Plant response rating, Barnyardgrass” value was 0 in assay [6] (setting [7]), 0 in assay [6] (setting [8]), 0 in assay [6] (setting [9]) and 10 in assay [6] (setting [10]).

`CC(C)=NOC(=O)c1nc(C2CC2)nc(N)c1Cl` [Compound 146]: the “Plant response rating, Foxtail, Giant” value in assay [1] (setting [7]) is listed as 80; in assay [1] (setting [8]), 85; in assay [1] (setting [9]), 60; in assay [1] (setting [10]), 90. Further, the “Plant response rating, Crabgrass” value turned out to be 20 in assay [2] (setting [7]), 80 in assay [2] (setting [8]), 35 in assay [2] (setting [9]) and 75 in assay [2] (setting [10]). Also, the “Plant response rating, Velvetleaf” value is listed as 85 in assay [3] (setting [7]), 100 in assay [3] (setting [8]), 85 in assay [3] (setting [9]) and 100 in assay [3] (setting [10]). Moreover, the “Plant response rating, Pigweed” value in assay [4] (setting [7]) turned out to be 90; in assay [4] (setting [8]), 95; in assay [4] (setting [9]), 75; in assay [4] (setting [10]), 95. Further, the “Plant response rating, Morningglory” value in assay [5] (setting [7]) is on record as 85; in assay [5] (setting [8]) it was 100; in assay [5] (setting [9]), 95; in assay [5] (setting [10]), 100. For the same compound, the “Plant response rating, Barnyardgrass” value came out at 70 in assay [6] (setting [7]), 90 in assay [6] (setting [8]), 65 in assay [6] (setting [9]) and 90 in assay [6] (setting [10]).

Regarding `Cc1ccc(-c2nc(N)c(Cl)c(C(=O)O)n2)cc1F` [Compound 87], the “Plant response rating, Foxtail, Giant” value in assay [1] (setting [7]) came to 0; in assay [1] (setting [8]), 30; in assay [1] (setting [9]), 0; in assay [1] (setting [10]), 0. Besides, the “Plant response rating, Crabgrass” value in assay [2] (setting [7]) came to 0; in assay [2] (setting [8]), 10; in assay [2] (setting [9]), 10; in assay [2] (setting [10]), 75. Moreover, the “Plant response rating, Velvetleaf” value in assay [3] (setting [7]) is 90; in assay [3] (setting [8]), 95; in assay [3] (setting [9]), 25; in assay [3] (setting [10]), 95. In addition, the “Plant response rating, Pigweed” value in assay [4] (setting [7]) was found to be 55; in assay [4] (setting [8]), 90; in assay [4] (setting [9]), 85; in assay [4] (setting [10]), 100. Further, the “Plant response rating, Morningglory” value in assay [5] (setting [7]) was determined as 0; in assay [5] (setting [8]) it was 15; in assay [5] (setting [9]), 0; in assay [5] (setting [10]), 20. Moreover, the “Plant response rating, Barnyardgrass” value in assay [6] (setting [7]) came to 50; in assay [6] (setting [8]) it was 90; in assay [6] (setting [9]), 0; in assay [6] (setting [10]) it was 20.

In the case of `COC(OC)c1nc(-c2ccc(I)cc2)nc(N)c1Cl` [Compound 134], the “Plant response rating, Foxtail, Giant” value in assay [1] (setting [7]), in assay [1] (setting [8]), in assay [1] (setting [9]) and in assay [1] (setting [10]) was 0 each time. In addition, the “Plant response rating, Crabgrass” value in assay [2] (setting [7]), in assay [2] (setting [8]), in assay [2] (setting [9]) and in assay [2] (setting [10]) was 0 throughout. Moreover, the “Plant response rating, Velvetleaf” value in assay [3] (setting [7]) is listed as 50; in assay [3] (setting [8]), 55; in assay [3] (setting [9]), 0; in assay [3] (setting [10]) it was 0. Further, the “Plant response rating, Pigweed” value in assay [4] (setting [7]) was found to be 15; in assay [4] (setting [8]) it was 30; in assay [4] (setting [9]), 0; in assay [4] (setting [10]), 0. In addition, the “Plant response rating, Morningglory” value in assay [5] (setting [7]), in assay [5] (setting [8]), in assay [5] (setting [9]) and in assay [5] (setting [10]) was 0 in each case. Besides, the “Plant response rating, Barnyardgrass” value in assay [6] (setting [7]), in assay [6] (setting [8]), in assay [6] (setting [9]) and in assay [6] (setting [10]) was 0 throughout.

For the compound `CCOC(=O)Cc1nc(-c2ccc(Cl)cc2)nc(N)c1Cl` [Compound 120], the “Plant response rating, Foxtail, Giant” value in assay [1] (setting [7]), in assay [1] (setting [8]), in assay [1] (setting [9]) and in assay [1] (setting [10]) was 0 throughout. For the same compound, the “Plant response rating, Crabgrass” value in assay [2] (setting [7]) was 0; in assay [2] (setting [8]), 5; in assay [2] (setting [9]), 0; in assay [2] (setting [10]), 0. Moreover, the “Plant response rating, Velvetleaf” value is given as 50 in assay [3] (setting [7]), 65 in assay [3] (setting [8]), 0 in assay [3] (setting [9]) and 0 in assay [3] (setting [10]). Also, the “Plant response rating, Pigweed” value came out at 20 in assay [4] (setting [7]), 35 in assay [4] (setting [8]), 0 in assay [4] (setting [9]) and 0 in assay [4] (setting [10]). In addition, the “Plant response rating, Morningglory” value in assay [5] (setting [7]) is listed as 25; in assay [5] (setting [8]), 55; in assay [5] (setting [9]), 0; in assay [5] (setting [10]), 0. In addition, the “Plant response rating, Barnyardgrass” value in assay [6] (setting [7]) is 10; in assay [6] (setting [8]), 40; in assay [6] (setting [9]), 5; in assay [6] (setting [10]), 15.
